# Test results: patent US4337199A, “Antibiotic β-lactam compounds, production thereof, and their use as antimicrobial agent” (Sanraku-Ocean Co., Ltd., priority 1978, dated 1982)
# Where two headings read alike, the source gives them in different places.
# Tests used:
# Test in all cases: minimum inhibitory concentration, agar dilution assay
# Format in all cases: cell-based
# [1] = system: Alcaligenes faecalis A 1; conditions: read-out: minimum inhibitory concentration
# Method: (§1) The antibiotic activities shown in Tables I-1 to I-8 above were determined in the following manner.
# (§2) The minimum inhibitory concentrations of the compounds of formula (I-a-1) or (I-b-1) in Tables I-1 to I-7 and the known compounds in Table I-8 on the various microorganisms shown in the above tables were measured by an agar dilution assay method using a brain heart infusion agar medium "Difco" (a product of Difco Laboratories Inc.)
# (§3) A sample of the test compound was dissolved in sterile distilled water and diluted to prepare a two-fold dilution series of the compound solution. In a petri plate of 9 cm diameter, 1 ml of the compound solution was added to 9 ml of molten sterile heart infusion agar medium (Difco Laboratories Inc.) at about 60° C. to prepare the compound-containing agar plate. An overnight culture of each test organism indicated in the above table which was prepared by stationary cultivation in Trypto-Soy broth (Eiken Chemi. Co., Ltd.) at 35° C. for 18 to 20 hours, was diluted with the Trypto-Soy broth to give approximately 10^8 cells/ml and the diluted inoculum was inoculated onto the compound-containing agar plates. After cultivating the plates at 35° C. for 20 hours, the growth of the organism was observed. The minimum concentration of the compound at which no growth of the microorganism was noted was determined, and defined as the minimum inhibitory concentration of the test compound.
# [2] = system: Bacillus subtilis ATCC 6633; conditions: read-out: minimum inhibitory concentration
# Method: as §1, §2, §3
# [3] = system: Citrobacter freundii GN 346; conditions: read-out: minimum inhibitory concentration
# Method: as §1, §2, §3
# [4] = system: Comamonas terrigena B-996; conditions: read-out: minimum inhibitory concentration
# Method: as §1, §2, §3
# [5] = system: Enterobacter aerogenes E19; conditions: Klebsiella aerogenes, read-out: minimum inhibitory concentration
# Method: as §1, §2, §3
# [6] = system: Enterobacter cloacae 45; conditions: read-out: minimum inhibitory concentration
# Method: as §1, §2, §3
# [7] = system: Enterobacter sp. E8; conditions: read-out: minimum inhibitory concentration
# Method: as §1, §2, §3
# [8] = system: Escherichia coli K-12; conditions: read-out: minimum inhibitory concentration
# Method: as §1, §2, §3
# [9] = system: Escherichia coli RGN 823; conditions: read-out: minimum inhibitory concentration
# Method: as §1, §2, §3
# [10] = system: Klebsiella pneumoniae K-13; conditions: read-out: minimum inhibitory concentration
# Method: as §1, §2, §3
# [11] = system: Proteus mirabilis P6; conditions: read-out: minimum inhibitory concentration
# Method: as §1, §2, §3
# [12] = system: Proteus rettgeri P7; conditions: Providencia rettgeri, read-out: minimum inhibitory concentration
# Method: as §1, §2, §3
# [13] = system: Proteus sp. P22; conditions: read-out: minimum inhibitory concentration
# Method: as §1, §2, §3
# [14] = system: Proteus vulgaris GN76; conditions: read-out: minimum inhibitory concentration
# Method: as §1, §2, §3
# [15] = system: Providencia sp. P8; conditions: read-out: minimum inhibitory concentration
# Method: as §1, §2, §3
# [16] = system: Pseudomonas aeruginosa IFO3445; conditions: read-out: minimum inhibitory concentration
# Method: as §1, §2, §3
# [17] = system: Pseudomonas aeruginosa NCTC10490; conditions: read-out: minimum inhibitory concentration
# Method: as §1, §2, §3
# [18] = system: Sarcina lutea; conditions: Micrococcus luteus, read-out: minimum inhibitory concentration
# Method: as §1, §2, §3
# [19] = system: Serratia marcescens S18; conditions: read-out: minimum inhibitory concentration
# Method: as §1, §2, §3
# [20] = system: Serratia marcescens T55; conditions: read-out: minimum inhibitory concentration
# Method: as §1, §2, §3
# [21] = system: Staphylococcus aureus FDA 209P; conditions: FDA209P, read-out: minimum inhibitory concentration
# Method: as §1, §2, §3
# [22] = system: Staphylococcus aureus Russell; conditions: read-out: minimum inhibitory concentration
# Method: as §1, §2, §3
# [23] = system: Staphylococcus aureus Smith; conditions: read-out: minimum inhibitory concentration
# Method: as §1, §2, §3
# [24] = system: Staphylococcus epidermidis; conditions: read-out: minimum inhibitory concentration
# Method: as §1, §2, §3
# [25] = A1, agar dilution, 35° C., 20 hours
# [26] = ATCC6633, agar dilution, 35° C., 20 hours
# [27] = GN346, agar dilution, 35° C., 20 hours
# [28] = B996, agar dilution, 35° C., 20 hours
# [29] = E19, agar dilution, 35° C., 20 hours
# [30] = Enterobacter cloacae, 45, agar dilution, 35° C., 20 hours
# [31] = SP.E8, agar dilution, 35° C., 20 hours
# [32] = K12, agar dilution, 35° C., 20 hours
# [33] = RGN823, agar dilution, 35° C., 20 hours
# [34] = K13, agar dilution, 35° C., 20 hours
# [35] = P6, agar dilution, 35° C., 20 hours
# [36] = P7, agar dilution, 35° C., 20 hours
# [37] = agar dilution, 35° C., 20 hours
# [38] = GN76, agar dilution, 35° C., 20 hours
# [39] = SP.P8, agar dilution, 35° C., 20 hours
# [40] = IFO3445, agar dilution, 35° C., 20 hours
# [41] = NCTC10490, agar dilution, 35° C., 20 hours
# [42] = S18, agar dilution, 35° C., 20 hours
# [43] = T55, agar dilution, 35° C., 20 hours
structure (smiles),measurement,setting,value
"CC(O)[C@H]1C(=O)N2C(C(=O)O)=C(Sc3ncccn3)C[C@H]12 (stereo partly drawn) [Example 63, 5,6-trans-3-(2-Pyrimidinylthio)-6-(1-hydroxyethyl)-7-oxo-1-azabicyclo[3.2.0]hept-2-ene-2-carboxylic acid]",MIC,[1]; [25],1.56 µg/mL
same,MIC,[2]; [26],0.39 µg/mL
same,MIC,[3]; [27],100 µg/mL
same,MIC,[4]; [28],0.05 µg/mL
same,MIC,[5]; [29],100 µg/mL
same,MIC,[6]; [30],50 µg/mL
same,MIC,[7]; [31],6.25 µg/mL
same,MIC,[8]; [32],1.56 µg/mL
same,MIC,[9]; [33],3.13 µg/mL
same,MIC,[10]; [34],25 µg/mL
same,MIC,[11]; [35],12.5 µg/mL
same,MIC,[12]; [36],12.5 µg/mL
same,MIC,[13]; [37],12.5 µg/mL
same,MIC,[14]; [38],12.5 µg/mL
same,MIC,[15]; [39],0.78 µg/mL
same,MIC,[16]; [40],12.5 µg/mL
same,MIC,[17]; [41],12.5 µg/mL
same,MIC,[18]; [37],0.2 µg/mL
same,MIC,[19]; [42],50 µg/mL
same,MIC,[20]; [43],100 µg/mL
same,MIC,[21]; [37],0.2 µg/mL
same,MIC,[22]; [37],0.39 µg/mL
same,MIC,[23]; [37],0.39 µg/mL
same,MIC,[24]; [37],0.39 µg/mL
"CC(O)[C@H]1C(=O)N2C(C(=O)O)=C(SCCO)C[C@H]12 (stereo partly drawn) [R1 --OH*, R21 --CH2 CH2 OH]",MIC,[1]; [25],6.25 µg/mL
same,MIC,[2]; [26],6.25 µg/mL
same,MIC,[3]; [27],12.5 µg/mL
same,MIC,[4]; [28],0.1 µg/mL
same,MIC,[5]; [29],12.5 µg/mL
same,MIC,[6]; [30],6.25 µg/mL
same,MIC,[7]; [31],6.25 µg/mL
same,MIC,[8]; [32],3.13 µg/mL
same,MIC,[9]; [33],12.5 µg/mL
same,MIC,[10]; [34],25 µg/mL
same,MIC,[11]; [35],50 µg/mL
same,MIC,[12]; [36],50 µg/mL
same,MIC,[13]; [37],100 µg/mL
same,MIC,[14]; [38],50 µg/mL
same,MIC,[15]; [39],6.25 µg/mL
same,MIC,[16]; [40],12.5 µg/mL
same,MIC,[17]; [41],12.5 µg/mL
same,MIC,[18]; [37],1.56 µg/mL
same,MIC,[19]; [42],25 µg/mL
same,MIC,[20]; [43],50 µg/mL
same,MIC,[21]; [37],0.39 µg/mL
same,MIC,[22]; [37],3.13 µg/mL
same,MIC,[23]; [37],3.13 µg/mL
same,MIC,[24]; [37],3.13 µg/mL
"CCC1C(=O)N2C(C(=O)O)=C(SCCO)CC12 (stereo not drawn) [R1 H, R21 --CH2 CH2 OH, sodium 3-(2-hydroxyethylthio)-6-ethyl-7-oxo-1-azabicylo[3.2.0]hept-2-ene-2-carboxylate]",MIC,[1]; [25],1.56 µg/mL
same,MIC,[2]; [26],0.1 µg/mL
same,MIC,[3]; [27],3.13 µg/mL
same,MIC,[4]; [28],0.025 µg/mL
same,MIC,[5]; [29],3.13 µg/mL
same,MIC,[6]; [30],6.25 µg/mL
same,MIC,[7]; [31],3.13 µg/mL
same,MIC,[8]; [32],3.13 µg/mL
same,MIC,[9]; [33],12.5 µg/mL
same,MIC,[10]; [34],12.5 µg/mL
same,MIC,[11]; [35],12.5 µg/mL
same,MIC,[12]; [36],12.5 µg/mL
same,MIC,[13]; [37],50 µg/mL
same,MIC,[14]; [38],25 µg/mL
same,MIC,[15]; [39],3.13 µg/mL
same,MIC,[16]; [40],12.5 µg/mL
same,MIC,[17]; [41],12.5 µg/mL
same,MIC,[18]; [37],0.1 µg/mL
same,MIC,[19]; [42],6.25 µg/mL
same,MIC,[20]; [43],12.5 µg/mL
same,MIC,[21]; [37],0.05 µg/mL
same,MIC,[22]; [37],0.2 µg/mL
same,MIC,[23]; [37],0.1 µg/mL
same,MIC,[24]; [37],0.2 µg/mL
CCC1C(=O)N2C(C(=O)[O-])=C(Sc3ccccc3)CC12.[Na+] (stereo not drawn),MIC,"[1]; A1, 20 h",4.7 µg/mL
same,MIC,"[2]; ATCC6633, 20 h",0.07 µg/mL
same,MIC,"[3]; GN346, 20 h",150 µg/mL
same,MIC,"[4]; B996, 20 h",< 0.01 µg/mL
same,MIC,"[5]; E19, 20 h",150 µg/mL
same,MIC,"[6]; Enterobacter cloacae, 45, 20 h",150 µg/mL
same,MIC,"[7]; SP.E8, 20 h",75 µg/mL
same,MIC,"[8]; K12, 20 h",37.5 µg/mL
same,MIC,"[9]; RGN823, 20 h",37.5 µg/mL
same,MIC,"[10]; K13, 20 h",> 150 µg/mL
same,MIC,"[11]; P6, 20 h",75 µg/mL
same,MIC,"[12]; P7, 20 h",75 µg/mL
same,MIC,[13]; 20 h,75 µg/mL
same,MIC,"[14]; GN76, 20 h",150 µg/mL
same,MIC,"[15]; SP.P8, 20 h",18.8 µg/mL
same,MIC,"[16]; IFO3445, 20 h",18.8 µg/mL
same,MIC,"[17]; NCTC10490, 20 h",4.7 µg/mL
same,MIC,[18]; 20 h,< 0.01 µg/mL
same,MIC,"[19]; S18, 20 h",75 µg/mL
same,MIC,"[20]; T55, 20 h",150 µg/mL
same,MIC,[21]; 20 h,< 0.01 µg/mL
same,MIC,[22]; 20 h,< 0.01 µg/mL
same,MIC,[23]; 20 h,0.1 µg/mL
same,MIC,[24]; 20 h,< 0.01 µg/mL
CC(O)C1C(=O)N2C(C(=O)O)=C(SC3CCCCC3)CC12 (stereo not drawn),MIC,[1]; [25],1.56 µg/mL
same,MIC,[2]; [26],0.013 µg/mL
same,MIC,[3]; [27],100 µg/mL
same,MIC,[4]; [28],< 0.007 µg/mL
same,MIC,[5]; [29],50 µg/mL
same,MIC,[6]; [30],50 µg/mL
same,MIC,[7]; [31],12.5 µg/mL
same,MIC,[8]; [32],12.5 µg/mL
same,MIC,[9]; [33],100 µg/mL
same,MIC,[10]; [34],> 100 µg/mL
same,MIC,[11]; [35],6.25 µg/mL
same,MIC,[12]; [36],100 µg/mL
same,MIC,[13]; [37],> 100 µg/mL
same,MIC,[14]; [38],> 100 µg/mL
same,MIC,[15]; [39],25 µg/mL
same,MIC,[16]; [40],> 100 µg/mL
same,MIC,[17]; [41],50 µg/mL
same,MIC,[18]; [37],< 0.007 µg/mL
same,MIC,[19]; [42],> 100 µg/mL
same,MIC,[20]; [43],> 100 µg/mL
same,MIC,[21]; [37],0.013 µg/mL
same,MIC,[22]; [37],0.013 µg/mL
same,MIC,[23]; [37],0.05 µg/mL
same,MIC,[24]; [37],0.05 µg/mL
